Experimental data reported in patent US12162819B2, “Ionizable lipid compounds” (Beijing Jitai Pharmaceutical Technology Co., Ltd., priority 2022, dated 2024).

Key:
[1] = test system: human embryonic kidney cells 293 (HEKi293T cells); assay: In vitro delivery of luciferase mRNA nanoparticles, luciferase expression (RLU); assay type: cell-based; conditions: HEK293T cells, LNP with luciferase mRNA, 24 h
Experimental: (§1) Lipid nanoparticles were prepared by (1) dissolving and mixing ionizable lipid compounds, cholesterol, phospholipids and polyethylene glycolated lipids in ethanol at (molar percentages) 50%, 38.5%, 10% and 1.5%, respectively; (2) dissolving the mRNA active ingredient in 25 mM sodium acetate solution (pH=4.5); (3) using an automated high-throughput microfluidic system to mix the organic phase containing the lipid mixture and the aqueous phase containing the mRNA component in the flow ratio range of 1:1 to 1:4 at a mixing speed of 10 mL/min to 18 mL/min; (4) the prepared lipid nanoparticles (N/P ratio of 6) were diluted with phosphate buffer solution and the nanoparticle solutions were ultrafiltered to the original preparation volume using ultrafiltration tubes (purchased from Millipore) with a cut-off molecular weight of 30 kDa; and (5) the obtained nanoparticles were filtered through a sterile 0.2 μm filter membrane and then stored in a sealed glass vial at low temperature.
(§2) The delivery effect and safety of nanoparticles encapsulated with luciferase mRNA were evaluated at the cellular level in vitro. The cells used in the assay were human embryonic kidney cells 293 (HEKi293T cells) cultured in DMEM (Dulbecco's Modified Eagle Medium) (purchased from Thermo Fisher) containing […] fetal bovine serum and […] penicillin-streptomycin double antibiotics at a indoor temperature of 37° C. and a CO2 concentration of […]. The cells were uniformly dispersed and spread in 48-well plates, and incubated in the incubator for 24 h. Then a solution of the lipid nanoparticles encapsulated with luciferase mRNA were added. After 24 h, the cells were lysed, and the intracellular expression intensity and relative light units (RLU) of luciferase in each type of lipid nanoparticles were measured with a luciferase detection reagent (purchased from Promega). The higher the intensity of expression, the higher the delivery efficiency of the lipid material at the cellular level. Meanwhile, CCK-8 reagent (purchased from DOJINDO) was used in cytotoxicity testing for the parallel lipid nanoparticle-treated cell groups after 24 hours. In the test, the group of cells to which only PBS was added was used as a negative control. The procedure was as follows: after the addition of CCK-8 solution, the cells were left to stand in an incubator at 37° C. for 4 h. The absorbance values were read on a multifunctional microplate reader at an absorbance band of 450 nm. The ratio of the absorbance value of the nanoparticle-treated cells to that of the negative control was used as a characterization parameter for cell viability.

[2] = Encapsulation efficiency of lipid nanoparticles, Quant-It RiboGreen RNA Assay; assay type: physicochemical; conditions: lipid nanoparticle with the cationic lipid, luciferase mRNA
Experimental: as §1
(§3) The particle size and particle size dispersity index (PDI) of the prepared lipid nanoparticles were measured using a Zetasizer Pro (purchased from Malvern Instruments Ltd) and a DynaPro NanoStar (purchased from Wyatt) dynamic light scattering instrument. The degree of RNA encapsulation by lipid nanoparticles was characterized by the Encapsulation Efficiency %, which reflects the degree of binding of lipid nanoparticles to RNA fragments. This parameter was measured by the method of Quant-It™ RiboGreen RNA Assay (purchased from Invitrogen). Lipid nanoparticle samples were diluted in TE buffer (10 mM Tris-HCl, 1 mM EDTA, pH=7.5). A portion of the sample solution was removed, to which 0.5% Triton (Triton X-100) was added, and then allowed to stand at 37° C. for 30 minutes. Immediately after the addition of RIBOGREEN® reaction solution, the fluorescence values were read on a Varioskan LUX multifunctional microplate reader (purchased from Thermofisher) at 485 nm for absorption and 528 nm for emission to give the encapsulation efficiency values.

[3] = test system: human embryonic kidney cells 293 (HEKi293T cells); assay: CCK-8 cytotoxicity testing of lipid nanoparticle-treated cells; assay type: cell-based; design: concentration or dose not given beside the values; conditions: HEK293T cells, LNP-treated 24 h, CCK-8, ratio to PBS negative control
Experimental: as §1, §2

[4] = Particle size and PDI of lipid nanoparticles by dynamic light scattering; assay type: physicochemical; conditions: lipid nanoparticle with the cationic lipid, cholesterol, DSPC, DMG-PEG2000 (50/38.5/10/1.5 mol%), luciferase mRNA, N/P 6
Experimental: as §1, §3

C57BL/6 mice = assay: In vivo bioluminescence assay of lipid nanoparticles encapsulated with luciferase mRNA in mice; conditions: C57BL/6 mice, intravenous, single dose 0.5 mg/kg luciferase mRNA in LNP, 6 h after administration, group mean
Experimental: as §1
The delivery effect and safety of nanoparticles encapsulated with luciferase mRNA (Trilink, L-7202) in mice were evaluated. The test mice were SPF-grade C57BL/6 mice, female, 6-8 weeks old, weighing 18-22 g, and were purchased from SPF (Beijing) Biotechnology Co., Ltd. All animals were acclimatized for more than 7 days prior to the experiment, and had free access to food and water during the experiment. The conditions include alternating light and dark for 12/12 h, the indoor temperature of 20-26° C. and the humidity of 40-70%. The mice were randomly grouped. The lipid nanoparticles encapsulated with luciferase mRNA prepared above were injected into mice by intravenous administration at a single dose of 0.5 mg/kg mRNA, and the mice were subjected to in vivo bioluminescence assay using a Small Animal In Vivo Imaging System (IVIS LUMINA III, purchased from PerkinElmer) at 6 h after administration. The assay was performed as follows: D-luciferin solution was prepared in saline at a concentration of 15 mg/mL, and each mouse was given the substrate by intraperitoneal injection. At ten minutes after administration of the substrate, the mice were anesthetized in an anesthesia chamber with isoflurane at a concentration of 2.5%. The anesthetized mice were placed in IVIS for fluorescence imaging, and data acquisition and analysis were performed on the concentrated distribution area of fluorescence.
The in vivo delivery efficiency of lipid nanoparticle carriers was expressed as the mean values of fluorescence intensity and total photon count in different animals within the same subject group, as shown in Table 5. Higher values of fluorescence intensity and total photon count indicate higher in vivo delivery efficiency of this mRNA fragment by lipid nanoparticles. The lipid nanoparticles containing the cationic lipids of the present disclosure have good in vivo delivery efficiency.

Row | Compound | Luciferase luminescence (RLU) [1] [RLU] | Encapsulation efficiency (%) [2] [%] | Cell viability (%) [3] [%] | Particle size (nm) [4] [nm] | Particle size dispersity (PDI) [4] | Total photon count in vivo at 6 hours after administration (Total Flux) (C57BL/6 mice)
1 | CCCCCCCCCSC(=O)C(C)(C)CCCCCC(CCCCCC(C)(C)C(=O)SCCCCCCCCC)OC(=O)CCCN(C)C [Compound 37] | 1.04E+07 | 89.07 | 97.48 | 92.18 | 0.03 | –
2 | CCCCCCCCOC(=O)C(C)(C)CCCCCC(CCCCCC(C)(C)C(=O)OCCCCCCCC)OC(=O)C1CCN(C)CC1 [Compound 100] | 1.98E+06 | 83.29 | 104.67 | 118.19 | 0.07 | –
3 | CCCCCCCCCOC(=O)C(C)(C)CCCCCC(CCCCCC(C)(C)C(=O)SCCCCCCCCC)OC(=O)CCCN(C)C (centres unmarked) [Compound 41] | 1.23E+07 | 93.91 | 104.91 | 104.27 | 0.05 | –
4 | CCCCCCCCCOC(=O)C(C)(C)CCCCCC(CCCCCC(C)(C)C(=O)OCCCCCCCCC)OC(=O)CCCCCN(C)C [Compound 32] | 6.99E+06 | 99.02 | 96.25 | 116.61 | 0.07 | –
5 | CCCCC/C=C\C/C=C\CCCCCCCCC(CCCCCCCC/C=C\C/C=C\CCCCC)OC(=O)CCCN(C)C [DLin-MC3-DMA, reference compound] | 2.95E+06 | 95.62 | 97.84 | 96.83 | 0.04 | –
6 | CCCCCCCCC(CCCCCC)OC(=O)C(C)(C)CCCCCC(CCCCCC(C)(C)C(=O)OC(CCCCCC)CCCCCCCC)OC(=O)CCN(C)C (centres unmarked) [Compound 16] | – | 96.52 | – | 55.39 | 0.05 | 3.97E+07
